Reference: patent publication US6506707B1, “Herbicidal compositions containing plant essential oils and mixtures or blends thereof” (Ecosmart Technologies, Inc., priority 1999, dated 2003)

Tests used:
[1] = system: greenhouse-grown cabbage leaves; test: Direct droplet bioassay on cabbage leaves (Examples 5 and 7); type: in vivo; details: applied in one microliter of methanol; for EC50 (amount producing 50% of maximum effect): cabbage leaves; for relative toxicity to cabbage leaves (ranking by EC50): individual oils
Procedure: Various plant essential oils were tested for toxicity (herbicidal action) against greenhouse-grown cabbage leaves. Individual oils were ranked for relative toxicity using the direct droplet bioassay on the cabbage leaves.
Various plant essential oils were tested for synergistic effects on the toxicity (herbicidal action) against greenhouse-grown cabbage leaves. Individual oils were ranked for relative toxicity using the direct droplet bioassay on the cabbage leaves, and compared to mixtures at different ratios. […]

dandelion = test: Direct droplet bioassay on dandelion (Example 6); type: in vivo; details: individual oils, applied in one microliter of methanol
Procedure: Various plant essential oils were tested for toxicity (herbicidal action) against dandelion. Individual oils were ranked for relative toxicity using the direct droplet bioassay on the dandelion. EC50 values (amount producing 50% of maximum effect) were recorded in micrograms (all applied in one microliter of methanol) and plotted on a graph for comparison.

Row | EC50 (amount producing 50% of maximum effect) [1] | SMILES | relative toxicity to dandelion (ranking by EC50) (dandelion) | relative toxicity to cabbage leaves (ranking by EC50) [1]
1 | 158.8 micrograms | CCC(=O)OCCc1ccccc1 [Phenethyl Propionate (PEP), Phenethyl Propionate] | – | –
2 | 10.7 micrograms | Cc1ccc(C(C)C)c(O)c1 [Thymol] | – | –
3 | – | CC12CCC(CC1)C(C)(C)O2 [cineole, Cineole] | most toxic | –
4 | – | O=C/C=C/c1ccccc1 [cinnamic aldehyde, Cinnamic Aldehyde] | most toxic | most toxic
5 | – | CC(C)=CCCC(C)CC=O (stereo not drawn) [citronellal, Citronellal] | most toxic | most toxic
6 | – | COC(=O)c1ccccc1O [methyl salicylate, Methyl Salicylate] | most toxic | most toxic
7 | – | Cc1ccc(C(C)C)c(O)c1 [white thymol, White Thymol] | most toxic | most toxic

Row | SMILES | EC50 (amount producing 50% of maximum effect) [1] | relative toxicity to dandelion (ranking by EC50) (dandelion) | relative toxicity to cabbage leaves (ranking by EC50) [1]
8 | C=CCc1ccc(O)c(OC)c1 [Eugenol] | 46.1 micrograms | – | –
